Patent US20040121965A1, “Method of treating resistant tumors” (Wyeth Holdings Corporation, priority 2002, published 2004)
Read-outs that look alike come from different tables or passages of the source.

Columns and labels:
NCI-H838 = experiment: Cell survival assay (SRB), NCI-H838; assay type: cell-based; conditions: Homo sapiens, 72 h; NCI-H838, NSCLC; 3 days, SRB staining
Experimental: (§1) 2.2. Cell Survival Assay: Standard Pharmacological Test Procedure. […] Compounds are incubated with cells for 3 days.

SK-Mel-2 = experiment: Cell survival assay (SRB), SK-Mel-2; assay type: cell-based; conditions: Homo sapiens
Experimental: as §1

BxPC3 = experiment: Cell survival assay (SRB), BxPC3; assay type: cell-based; conditions: Homo sapiens, BXPC-3, 72 h
Experimental: as §1

HL60/AR (MRP1) = experiment: Cell survival assay, HL60/AR (MRP1); conditions: for IC50: Homo sapiens, HL-60/AR, read-out: HL60/AR (MRP1) IC50, nM (N)
From the text: Cells lines with previously known mechanisms of resistance. […] Res. 8: 207-218,1996); KB-3-1 (parental derived from an epidermoid carcinoma), KB-8.5, KB-V1 (Akiyama S-I, Fojo A, Hanover J A, Pastan I, Gottesman M M. Isolation and genetic characterization of human KB cell lines resistant to multiple drugs. Somatic Cell Mol. Gen., 11: 117-126,1985; Shen D-W, Cardarelli C, Hwang J, Cornwell M, Richert N, Ishii S, Pastan I, Gottesman MM. […] J. Biol. Chem., 261: 7762-7770, 1986); and HL-60 (parental derived from human leukemia) and HL60/AR (McGrath T., Center M. S. Adriamycin resistance in HL60 cells in the absence of detectable P-glycoprotein. Biochem. Res. Commun., 145:1171-1176,1987); A549 and A549.EpoB40 (He L., Yang C.-P.H., Horwitz S. B. Mutations in p-tubulin map to domains involved in regulation of microtubule stability in epothilone-resistant cell lines. Molecular Cancer Therapeutics. 1: 3-10, 2001). HCT-15 human colon carcinoma and DLD-1 human colon carcinoma are obtained from American Tissue Culture Collection. The MX-1W carcinoma is a Wyeth variant orginally obtained as MX-1 breast carcinoma from the National Cancer Institute. Cell lines selected for resistance to Representative Example 129. KB-3-1 cells are selected for resistance to Example 129 by chronically exposing cells to increasing concentrations of Example 129.
2.2. Cell Survival Assay: Standard Pharmacological Test Procedure. The concentration of candidate inhibitor required to inhibit 50% of cell growth (IC50) is done according to previously reported methods. […] Compounds are serially diluted into media as 2× stocks and 100 μl added to cells in duplicate. Compounds are incubated with cells for 3 days. At the end of the incubation period the sulforhodamine B (SRB) assay, which measures protein content as an assessment of cell survival, is performed as described previously (Skehan P, Storeng R, Scudiero D, Monks A, McMahon J, Vistica D, Warren J T, Bokesch H, Kenney S, Boyd MR. New calorimetric cytotoxicity assay for anticancer-drug screening. J Natl Cancer Inst 1990 Jul 4;82(13):1107-12) with some modification as follows. For KB-3-1 cells with 20% FCS, media is gently decanted and replaced with 200 μl of serum-free media mixed with cold 50% TCA for a final concentration of 10% TCA. The plates are incubated for 1 hr at 4° C., followed by washing 5 times in cold distilled water, then air dried overnight. The fixed cells are stained for 10 min with 80 μl of 0.04% SRB solution prepared in 1% glacial acetic acid. Stain is discarded and plates washed 5 times in 1% glacial acetic acid, then air-dried until completely dry. Stained cell product is dissolved in 150 μl of 10 mM Trizma Base and placed on a shaker for 20 minutes until fully dissolved. Absorbance is read on a Victor V multi-label plate reader (Perkin Elmer, Gaithersburg, Md.).
J. Cell Science,113: 2011-2021, 2000). It was unknown whether the hemiasterlin family of peptides interact with these drug pumps.

HCT-15 tumor = experiment: Growth of tumors in nude mice, HCT-15 xenograft; assay type: in vivo; conditions: paclitaxel 60 mg/kg IV, days 1,5,9
From the text: 2.4. Growth of Tumors in Nude Mice.

SKBR3 = experiment: Cell survival assay (SRB), SKBR3; assay type: cell-based; conditions: Homo sapiens, SK-BR-3, 72 h; SKBR3, breast; 3 days, SRB staining
Experimental: as §1

MAP-associated tubulin = experiment: Polymerization of MAP-associated tubulin, cell-free spectrophotometric assay; assay type: biochemical
[1] = Mitotic arrest and apoptosis; assay type: cell-based; conditions: at 24 hr; followed by apoptosis (48 hr)
Experimental: d) induces mitotic arrest (3-10 nM at 24 hr) followed by apoptosis (48 hr),

MCF7 = experiment: Cell survival assay (SRB), MCF7; assay type: cell-based; conditions: Homo sapiens, MCF7, 72 h
Experimental: as §1

MDA-MB-435 = experiment: Cell survival assay (SRB), MDA-MB-435; assay type: cell-based; conditions: Homo sapiens, 72 h; MDA-MB-435, breast; 3 days, SRB staining
Experimental: as §1

cellular microtubules = experiment: Cellular microtubules by immunofluorescence microscopy; assay type: cell-based
DU145 = experiment: Cell survival assay (SRB), DU145; assay type: cell-based; conditions: Homo sapiens, DU-145, 72 h; DU145, prostate; 3 days, SRB staining
Experimental: as §1

CX-1 = experiment: Cell survival assay (SRB), CX-1; assay type: cell-based; conditions: Homo sapiens, 72 h; CX-1, colon; 3 days, SRB staining
Experimental: as §1

SMILES | IC50 (NCI-H838) | IC50 (SK-Mel-2; 72 h, SK-Mel-2, melanoma, 3 days, SRB staining, read-out: IC50) | IC50 (BxPC3; BxPC3, pancreatic, 3 days, SRB staining, read-out: IC50) | IC50 (HL60/AR (MRP1)) | % T/C on day 9 (HCT-15 tumor) | % T/C on day 13 (HCT-15 tumor) | % T/C on day 17 (HCT-15 tumor) | % T/C on day 21 (HCT-15 tumor) | IC50 (SK-Mel-2; SK-MEL-2, 72 h) | IC50 (SKBR3) | polymerization of MAP-associated tubulin (MAP-associated tubulin) | concentration that induces mitotic arrest [1] | IC50 (MCF7) | IC50 (BxPC3) | RR, relative resistance (HL60/AR (MRP1); IC50 HL60/AR / IC50 HL60) | IC50 (MDA-MB-435) | effect on cellular microtubules (cellular microtubules) | IC50 (DU145) | IC50 (CX-1)
CC(=O)O[C@H]1C(=O)[C@@]2(C)[C@H]([C@H](OC(=O)c3ccccc3)[C@]3(O)C[C@H](OC(=O)[C@H](O)[C@@H](NC(=O)c4ccccc4)c4ccccc4)C(C)=C1C3(C)C)[C@]1(OC(C)=O)CO[C@@H]1C[C@@H]2O [paclitaxel, reference compound] | 6.3 ± 0.6 nM | 3.2 ± 1.8 nM | 10.8 nM | 5.2 nM | 114% | 106% | 123% | 110% | – | – | – | – | – | – | – | – | – | – | –
CN[C@H](C(=O)N[C@H](C(=O)N(C)[C@H](/C=C(\C)C(=O)O)C(C)C)C(C)(C)C)C(C)(C)c1ccccc1 [Example 129, N,β,β-trimethyl-L-phenylalanyl-N^1-[(1S,2E)-3-carboxy-1-isopropylbut-2-enyl]-N^1,3-dimethyl-L-valinamide] | – | – | – | 0.245 ± 0.45 nM | – | – | – | – | 1.7 ± 0.5 nM | 2.3 nM | inhibitor of polymerization | 3 to 10 nM | 7.3 ± 2.3 nM | 0.7 nM | 1.2 | 0.5 nM | depolymerizes cellular microtubules | 2 nM | 2.3 nM
